US20240287042A1, “NOVEL COMPOUND HAVING INHIBITORY ACTIVITY AGAINST PENDRIN, AND PHARMACEUTICAL USES THEREOF” (UIF (University Industry Foundation), Yonsei University, priority 2021, published 2024)

Target: T1, human wild-type (WT)-pendrin (Homo sapiens, UniProt O43511)
T1 construct: expressed in transfected cells
T1 sequence (O43511 1-780): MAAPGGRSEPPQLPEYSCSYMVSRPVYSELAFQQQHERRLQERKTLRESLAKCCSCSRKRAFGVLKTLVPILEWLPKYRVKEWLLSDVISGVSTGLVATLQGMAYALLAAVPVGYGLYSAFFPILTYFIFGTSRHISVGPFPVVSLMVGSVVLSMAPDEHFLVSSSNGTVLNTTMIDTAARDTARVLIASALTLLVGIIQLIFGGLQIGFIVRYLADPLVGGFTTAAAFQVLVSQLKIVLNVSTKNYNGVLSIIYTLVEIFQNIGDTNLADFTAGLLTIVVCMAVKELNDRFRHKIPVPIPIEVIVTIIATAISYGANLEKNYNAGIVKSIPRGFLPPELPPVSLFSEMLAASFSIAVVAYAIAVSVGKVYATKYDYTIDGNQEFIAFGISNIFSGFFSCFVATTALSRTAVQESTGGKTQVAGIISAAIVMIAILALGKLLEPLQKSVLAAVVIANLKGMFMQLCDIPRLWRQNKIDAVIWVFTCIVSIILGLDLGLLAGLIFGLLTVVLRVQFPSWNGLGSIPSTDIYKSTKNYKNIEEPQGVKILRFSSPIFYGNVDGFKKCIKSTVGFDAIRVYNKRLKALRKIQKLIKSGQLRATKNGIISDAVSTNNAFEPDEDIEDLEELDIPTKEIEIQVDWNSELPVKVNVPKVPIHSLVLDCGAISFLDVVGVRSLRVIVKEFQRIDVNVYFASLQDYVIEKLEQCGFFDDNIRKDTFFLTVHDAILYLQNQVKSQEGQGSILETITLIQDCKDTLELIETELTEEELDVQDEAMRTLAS
Test: Pendrin Cl−/I− exchange inhibitory activity, YFP fluorescence in CHO-K1 cells
Format: cell-based
Conditions: CHO-K1; for inhibition at 1 µM: compound concentration 1 μM; for inhibition at 3 µM: compound concentration 3 μM; for inhibition at 10 µM: compound concentration 10 μM; for inhibition at 30 µM: compound concentration 30 μM; for inhibition at 100 µM: compound concentration 100 μM
Description: Chinese hamster ovary (CHO)-K1 cells were cultured in DMEM medium containing 10% fetal bovine serum (FBS), 100 units/ml of penicillin and 100 μg/ml streptomycin. CHO-K1 cells were stably transfected with pcDNA3.1 encoding the halide sensor YFP-H148Q/I152L/F46L and human wild-type (WT)-pendrin.
(§1) CHO-K1 cells expressing human WT pendrin and YFP-F46L/H148Q/I152L were plated in 96-well microplates at a density of 2×10^4 cells per well, and cultured for 48 hours. Each well of the cell cultured 96-well plate was washed 2 times with 200 μL of PBS, and filled with 50 μL of HEPES buffered solution (140 mM NaCl, 5 mM KCl, 1 mM MgCl2, 1 mM CaCl2), 10 mM glucose and 10 mM HEPES (pH 7.4)). Test compounds (1 μL) were added to a final concentration of 1, 3, 10, 30 and 100 μM. After culturing at 37° C. for 10 minutes, the 96-well plate was located on the FLUOstar Omega Microplate Reader (BMG Labtech, Ortenberg, Germany) for a fluorescence assay. Fluorescence was recorded continuously (400 ms per point) for 1 second (baseline), whereby each well was assayed individually for pendrin-mediated I-influx. Then 50 μL of Na-substituted HEPES buffered solution (replacing NaCl with NaI) was added using a liquid injector at 1 second, and YFP fluorescence was recorded for 5 seconds. The initial iodide influx rate was determined from the initial slope of fluorescence by nonlinear regression, after the injection of iodide.
as §1, with “Chinese hamster ovary (CHO)-K1 cells were cultured in DMEM medium containing 10% fetal bovine serum (FBS), 100 units/ml of penicillin and 100 μg/ml streptomycin. CHO-K1 cells were stably transfected with pcDNA3.1 encoding the halide sensor YFP-H148Q/I152L/F46L and human wild-type (WT)-pendrin. 3-2: Assay of Cl^−/I^− exchange activity CHO-K1” for “CHO-K1”, “50” for “1, 3, 10, 30 and 100”, “Then,” for “Then”, “NaI-substituted” for “Na-substituted”

| Structure (SMILES) | inhibition at 1 µM [%] | inhibition at 3 µM [%] | inhibition at 10 µM [%] | inhibition at 30 µM [%] | inhibition at 100 µM [%] |
| --- | --- | --- | --- | --- | --- |
| O=C(O)c1[nH]c2ccc(Cl)cc2c1CC(=O)N1CCN(c2ccc(C(F)(F)F)cc2)CC1 [YPI-A4779, 5-Chloro-3-(2-oxo-2-(4-(4-(trifluoromethyl)phenyl)piperazin-1-yl)ethyl)-1H-indole-2-carboxylic acid] | < 20 | < 20 | 66.7 | 92.7 | 95.3 |
| O=C(O)c1[nH]c2ccc(Cl)cc2c1CC(=O)N1CCN(c2ccccc2C(F)(F)F)CC1 [YPI-A4781, 5-Chloro-3-(2-oxo-2-(4-(2-(trifluoromethyl)phenyl)piperazin-1-yl)ethyl)-1H-indole-2-carboxylic acid] | < 20 | 21.5 | 71.4 | 93.8 | 95.6 |
| Cc1cccc(C)c1N1CCN(C(=O)Cc2c(C(=O)O)[nH]c3ccc(Cl)cc23)CC1 [YPI-A4783, 5-Chloro-3-(2-(4-(2,6-dimethylphenyl)piperazin-1-yl)-2-oxoethyl)-1H-indole-2-carboxylic acid] | 39.9 | 74.5 | 100 | 100 | 100 |
| Cc1cccc(N2CCN(C(=O)Cc3c(C(=O)O)[nH]c4ccc(Cl)cc34)CC2)c1C [YPI-A4799, 5-Chloro-3-(2-(4-(2,3-dimethylphenyl)piperazin-1-yl)-2-oxoethyl)-1H-indole-2-carboxylic acid] | 27.9 | 65.3 | 94.2 | 95.5 | 97.1 |
| Cc1ccc(N2CCN(C(=O)Cc3c(C(=O)O)[nH]c4ccc(Cl)cc34)CC2)c(C)c1 [YPI-A4801, 5-Chloro-3-(2-(4-(2,4-dimethylphenyl)piperazin-1-yl)-2-oxoethyl)-1H-indole-2-carboxylic acid] | 40.9 | 72.8 | 95.4 | 96.7 | 97.4 |
| O=C(O)c1[nH]c2ccc(Cl)cc2c1CC(=O)N1CCN(c2ccccc2Cl)CC1 [YPI-A4803, 5-Chloro-3-(2-(4-(2-chlorophenyl)piperazin-1-yl)-2-oxoethyl)-1H-indole-2-carboxylic acid] | < 20 | < 20 | 39.4 | 73.9 | 95.7 |
| O=C(O)c1[nH]c2ccc(Cl)cc2c1CC(=O)N1CCN(c2ccc(Cl)cc2)CC1 [YPI-A4843, 5-Chloro-3-(2-(4-(4-chlorophenyl)piperazin-1-yl)-2-oxoethyl)-1H-indole-2-carboxylic acid] | < 20 | < 20 | 40.3 | 91.4 | 92.1 |
| O=C(O)c1[nH]c2ccc(Cl)cc2c1CC(=O)N1CCN(c2ccccc2Br)CC1 [YPI-A4844, 3-(2-(4-(2-Bromophenyl)piperazin-1-yl)-2-oxoethyl)-5-chloro-1H-indole-2-carboxylic acid] | < 20 | < 20 | 59.7 | 92.5 |  |
| CC(C)(C)OC(=O)N1CCN(C(=O)Cc2c(C(=O)O)[nH]c3ccc(Cl)cc23)CC1 [YPI-A4879, 3-(2-(4-(tert-butoxycarbonyl)piperazin-1-yl)-2-oxoethyl)-5-chloro-1H-indole-2-carboxylic acid] | < 20 | < 20 | < 20 | < 20 | < 20 |

Now from value to compound:

| inhibition at 1 µM [%] | inhibition at 3 µM [%] | inhibition at 10 µM [%] | inhibition at 30 µM [%] | inhibition at 100 µM [%] | Structure (SMILES) |
| --- | --- | --- | --- | --- | --- |
| < 20 | < 20 | 35.1 | 88.8 |  | O=C(O)c1[nH]c2ccc(Cl)cc2c1CC(=O)N1CCN(c2cccc(Br)c2)CC1 [YPI-A4845, 3-(2-(4-(3-Bromophenyl)piperazin-1-yl)-2-oxoethyl)-5-chloro-1H-indole-2-carboxylic acid] |
| < 20 | < 20 | 73.3 | 94.7 |  | O=C(O)c1[nH]c2ccc(Cl)cc2c1CC(=O)N1CCN(c2ccc(Br)cc2)CC1 [YPI-A4846, 3-(2-(4-(4-Bromophenyl)piperazin-1-yl)-2-oxoethyl)-5-chloro-1H-indole-2-carboxylic acid] |
| < 20 | < 20 | 60.6 | 91.5 | 92.4 | Cc1ccccc1N1CCN(C(=O)Cc2c(C(=O)O)[nH]c3ccc(Cl)cc23)CC1 [YPI-A4847, 5-Chloro-3-(2-oxo-2-(4-(o-tolyl)piperazin-1-yl)ethyl)-1H-indole-2-carboxylic acid] |
| < 20 | < 20 | < 20 | 58.9 | 90.5 | Cc1cccc(N2CCN(C(=O)Cc3c(C(=O)O)[nH]c4ccc(Cl)cc34)CC2)c1 [YPI-A4848, 5-Chloro-3-(2-oxo-2-(4-(m-tolyl)piperazin-1-yl)ethyl)-1H-indole-2-carboxylic acid] |
| < 20 | < 20 | 36.8 | 90.9 | 92.3 | Cc1ccc(N2CCN(C(=O)Cc3c(C(=O)O)[nH]c4ccc(Cl)cc34)CC2)cc1 [YPI-A4849, 5-Chloro-3-(2-oxo-2-(4-(p-tolyl)piperazin-1-yl)ethyl)-1H-indole-2-carboxylic acid] |
| < 20 | < 20 | < 20 | < 20 | 56.8 | COc1ccccc1N1CCN(C(=O)Cc2c(C(=O)O)[nH]c3ccc(Cl)cc23)CC1 [YPI-A4876, 5-Chloro-3-(2-(4-(2-methoxyphenyl)piperazin-1-yl)-2-oxoethyl)-1H-indole-2-carboxylic acid] |
| < 20 | < 20 | < 20 | < 20 | 67.5 | COc1cccc(N2CCN(C(=O)Cc3c(C(=O)O)[nH]c4ccc(Cl)cc34)CC2)c1 [YPI-A4877, 5-Chloro-3-(2-(4-(3-methoxyphenyl)piperazin-1-yl)-2-oxoethyl)-1H-indole-2-carboxylic acid] |
| < 20 | < 20 | < 20 | < 20 | 79.4 | COc1ccc(N2CCN(C(=O)Cc3c(C(=O)O)[nH]c4ccc(Cl)cc34)CC2)cc1 [YPI-A4878, 5-Chloro-3-(2-(4-(4-methoxyphenyl)piperazin-1-yl)-2-oxoethyl)-1H-indole-2-carboxylic acid] |
